Laboratory results: patent US20110319424A1, “NAPHTHYRIDIN-2(1H) -ONE COMPOUNDS USEFUL AS ANTIBACTERIALS” (priority 2008, published 2011)
In brackets after ≈: the same amount, converted by molar mass.

Assays:
Type in all cases: cell-based
[1] = General antimicrobial activity assay (whole-cell, CLSI broth microdilution, MIC); conditions: against a strain of at least one of the organisms listed; broth microdilution, 0.016 to 64 μg/mL
Method: (§1) General Antimicrobial Activity Assay
(§2) Whole-cell antimicrobial activity was determined by broth microdilution using the Clinical and Laboratory Standards Institute (CLSI) recommended procedure, Document M7-A7, “Methods for Dilution Susceptibility Tests for Bacteria that Grow Aerobically”. The compounds were tested in serial two-fold dilutions ranging from 0.016 to 64 μg/mL.
(§3) Compounds were evaluated against gram-positive organisms, selected from i) Staphylococcus aureus, ii) Streptococcus pneumoniae, and iii) Enterococcus faecalis. Two compounds were additionally evaluated against Streptococcus pyogenes, and Enterococcus faecium.
(§4) In addition, compounds were evaluated against gram-negative organisms selected from iv) Haemophilus influenzae, v) Moraxella catarrhalis and vi) Escherichia coll. Two compounds were additionally evaluated against Pseudomonas aeruginosa, Proteus mirabilis, Enterobacter cloacae, Enterobacter aerogenes, Klebsiella pneumoniae and Stenotrophomonas maltophilia.
(§5) The minimum inhibitory concentration (MIC) was determined as the lowest concentration of compound that inhibited visible growth. A mirror reader was used to assist in determining the MIC endpoint.

[2] = system: Mycobacterium tuberculosis H37Rv; assay: Mycobacterium tuberculosis H37Rv inhibition assay (MIC, resazurin fluorescence); conditions: ATCC 25618 / H37Rv, 144 h, H37Rv strain (ATCC25618), Middlebrook 7H9, six days at 37° C. then resazurin 48 hours
[3] = system: gram-positive organisms i) Staphylococcus aureus, ii) Streptococcus pneumoniae, iii) Enterococcus faecalis and gram-negative organisms iv) Haemophilus …; assay: General antimicrobial activity assay (whole-cell, CLSI broth microdilution, MIC); conditions: organisms i)-vi) of the antimicrobial activity assay
Method: as §1, §2, §3, §4, §5

Row | SMILES | MIC [1] [µg/mL] | MIC [2] [µg/mL] | activity against organisms i)-vi) [3]
1 | O=c1ccc2ncc(F)cc2n1CCN1CCC(NCc2ccc(F)cc2)CC1 [Example 14, 7-Fluoro-1-[2-(4-{[(4-fluorophenyl)methyl]amino}-1-piperidinyl)ethyl]-1,5-naphthyridin-2(1H)-one] | 4 (≈ 10 µM) | ≤ 2.4 | –
2 | O=c1ccc2ncccc2n1CCN1CCC(NCc2cccc(Cl)c2)CC1 [Example 57, 1-[2-(4-{[(3-chlorophenyl)methyl]amino}-1-piperidinyl)ethyl]-1,5-naphthyridin-2(1H)-one] | 4 (≈ 10.1 µM) | ≤ 2.4 | –
3 | O=c1ccc2ncccc2n1CCN1CCC(NCc2cc(Cl)cc(Cl)c2)CC1 [Example 58, 1-[2-(4-{[(3,5-dichlorophenyl)methyl]amino}-1-piperidinyl)ethyl]-1,5-naphthyridin-2(1H)-one] | – | – | no activity
4 | O=c1ccc2ncc(F)cc2n1CCN1CCC(NCc2nc(Br)cs2)CC1 [Example 60, 1-[2-(4-{[(4-bromo-1,3-thiazol-2-yl)methyl]amino}-1-piperidinyl)ethyl]-7-fluoro-1,5-naphthyridin-2(1H)-one] | 32 (≈ 68.6 µM) | – | –
5 | O=c1ccc2ncc(F)cc2n1CCN1CCC(NCc2cccc(Cl)c2)CC1 [Example 103, 1-[2-(4-{[(3-chlorophenyl)methyl]amino}-1-piperidinyl)ethyl]-7-fluoro-1,5-naphthyridin-2(1H)-one] | – | ≤ 2.4 | –
6 | COc1cnc2ccc(=O)n(CCN3CCC(NCc4cncc(Cl)n4)CC3)c2c1 [Example 111, 1-[2-(4-{[(6-chloro-2-pyrazinyl)methyl]amino}-1-piperidinyl)ethyl]-7-(methyloxy)-1,5-naphthyridin-2(1H)-one] | – | ≤ 2.4 | –
7 | COc1cnc2ccc(=O)n(CCN3CCC(NCc4ccnc(C(F)(F)F)n4)CC3)c2c1 [Example 113, 7-(methyloxy)-1-{2-[4-({[2-(trifluoromethyl)-4-pyrimidinyl]methyl}amino)-1-piperidinyl]ethyl}-1,5-naphthyridin-2(1H)-one] | – | ≤ 2.4 | –
8 | COc1cnc2ccc(=O)n(CCN3CCC(NCc4cc(C)cc(C)n4)CC3)c2c1 [Example 114, 1-[2-(4-{[(4,6-dimethyl-2-pyridinyl)methyl]amino}-1-piperidinyl)ethyl]-7-(methyloxy)-1,5-naphthyridin-2(1H)-one] | – | ≤ 2.4 | –
9 | COc1cnc2ccc(=O)n(CCN3CCC(NCc4ccc(Cl)cn4)CC3)c2c1 [Example 116] | – | ≤ 2.4 | –
10 | Cc1ncc(CNC2CCN(CCn3c(=O)ccc4ncc(F)cc43)CC2)[nH]1.O=C(O)C(F)(F)F [Example 119, 7-fluoro-1-[2-(4-{[(2-methyl-1H-imidazol-4-yl)methyl]amino}-1-piperidinyl)ethyl]-1,5-naphthyridin-2(1H)-one trifluoroacetate] | > 64 | – | –
11 | CC(C)(C)c1ccc(CNC2CCN(CCn3c(=O)ccc4ncc(F)cc43)CC2)cc1 [Example 121, 1-{2-[4-({[4-(1,1-dimethylethyl)phenyl]methyl}amino)-1-piperidinyl]ethyl}-7-fluoro-1,5-naphthyridin-2(1H)-one] | – | ≤ 2.4 | –
12 | Cc1cc(CNC2CCN(CCn3c(=O)ccc4ncc(F)cc43)CC2)cnc1C [Example 125, 1-[2-(4-{[(5,6-dimethyl-3-pyridinyl)methyl]amino}-1-piperidinyl)ethyl]-7-fluoro-1,5-naphthyridin-2(1H)-one] | – | ≤ 2.4 | –
13 | Cc1ncc(CN[C@H]2CCN(CCn3c(=O)ccc4ncc(F)cc43)C[C@H]2O)cc1F [Example 128, 7-fluoro-1-[2-((3R,4S)-4-{[(5-fluoro-6-methyl-3-pyridinyl)methyl]amino}-3-hydroxy-1-piperidinyl)ethyl]-1,5-naphthyridin-2(1H)-one] | 32 (≈ 74.5 µM) | ≤ 2.4 | –
14 | Cc1ncc(CN[C@H]2CCN(CCn3c(=O)ccc4ncc(F)cc43)C[C@H]2O)cc1Br [Example 130, 1-[2-((3R,4S)-4-{[(5-bromo-6-methyl-3-pyridinyl)methyl]amino}-3-hydroxy-1-piperidinyl)ethyl]-7-fluoro-1,5-naphthyridin-2(1H)-one] | – | ≤ 2.4 | –
15 | CC1(NCc2ccc(C(F)(F)F)nc2)CCN(CCn2c(=O)ccc3ncc(F)cc32)CC1 [Example 131, 7-fluoro-1-{2-[4-methyl-4-({[6-(trifluoromethyl)-3-pyridinyl]methyl}amino)-1-piperidinyl]ethyl}-1,5-naphthyridin-2(1H)-one] | – | ≤ 2.4 | –
16 | COc1cnc2ccc(=O)n(CCN3CCC(C)(NCc4ccc(Cl)c(Cl)c4)CC3)c2c1 [Example 132] | – | ≤ 2.4 | –
